Experimental data taken from ChEMBL document CHEMBL4616632, “Discovery of Cyclic Boronic Acid QPX7728, an Ultrabroad-Spectrum Inhibitor of Serine and Metallo-β-lactamases” (J Med Chem, 2020).

Legend:
Pseudomonas aeruginosa [1] = assay: Inhibition of Pseudomonas aeruginosa PAM 1032 KPC-2 assessed as minimum potentiating concentration of compound needed to reduce the MIC of biapenem by 64 fold
Pseudomonas aeruginosa [2] = assay: Inhibition of Pseudomonas aeruginosa PAM 1154 KPC-2 assessed as assessed as minimum potentiating concentration of compound needed to reduce the MIC of biapenem by 64 fold
[3] = Ratio of inhibition of Pseudomonas aeruginosa PAM 1032 KPC-2 assessed as minimum potentiating concentration of compound needed to reduce the MIC of biapenem by 64 fold to inhibition of Pseudomonas aeruginosa PAM 1154 KPC-2 assessed as assessed as minimum potentiating concentration of compound needed to reduce the MIC of biapenem by 64 fold
[4] = target: Beta-lactamase OXA-23 (Acinetobacter baumannii) (UniProt Q9L4P2); assay: Inhibition of Acinetobacter baumannii AB1054 OXA-23 assessed as minimum concentration of compound needed to reduce the MIC of meropenem to 8 ug/ml
Klebsiella pneumoniae [5] = assay: Inhibition of Klebsiella pneumoniae KP1009 CTX-M-15 assessed as minimum concentration of compound required to reduce the MIC of aztreonam to 4 ug/ml
Klebsiella pneumoniae [6] = assay: Inhibition of Klebsiella pneumoniae KP1054 VIM-1 assessed as minimum concentration of compound required to reduce the MIC of biapenem to 1 ug/ml
[7] = target: Beta-lactamase (Klebsiella pneumoniae) (UniProt Q93LQ9); assay: Inhibition of Klebsiella pneumoniae KP1004 KPC-2 assessed as minimum concentration of compound needed to reduce the MIC of aztreonam to 4 ug/ml
Acinetobacter baumannii = assay: Inhibition of Acinetobacter baumannii AB1053 OXA-72 assessed as minimum concentration of compound needed to reduce the MIC of meropenem to 8 ug/ml
Pseudomonas aeruginosa [8] = assay: Inhibition of Pseudomonas aeruginosa PAM 2035 AmpC assessed as minimum concentration of compound needed to reduce the MIC of aztreonam to 4 ug/ml
Enterobacter cloacae = assay: Inhibition of Enterobacter cloacae ECL1002 AmpC assessed as minimum concentration of compound needed to reduce the MIC of aztreonam to 4 ug/ml
Escherichia coli [9] = assay: Inhibition of Escherichia coli EC302 TEM-10 assessed as minimum concentration of compound needed to reduce the MIC of aztreonam to 4 ug/ml
Escherichia coli [10] = assay: Inhibition of Escherichia coli ECM6625 SHV-5 assessed as minimum concentration of compound needed to reduce the MIC of aztreonam to 4 ug/ml
Klebsiella pneumoniae [11] = assay: Inhibition of Klebsiella pneumoniae KP1081 NDM-1 assessed as minimum concentration of compound required to reduce the MIC of biapenem to 1 ug/ml
Klebsiella pneumoniae [12] = assay: Inhibition of Klebsiella pneumoniae KP1160 IMP-26 assessed as minimum concentration of compound needed to reduce the MIC of meropenem to 1 ug/ml
Escherichia coli [13] = assay: Inhibition of Escherichia coli ECM6619 TEM-10 assessed as minimum concentration of compound needed to reduce the MIC of aztreonam to 4 ug/ml
Escherichia coli [14] = assay: Inhibition of Escherichia coli EC308 SHV-5 assessed as minimum concentration of compound needed to reduce the MIC of aztreonam to 4 ug/ml
[15] = Oral bioavailability in rat at 50 to 75 mg/kg by HPLC/MS analysis; format: ADME, organism-based; details: in vivo
Klebsiella pneumoniae [16] = assay: Inhibition of Klebsiella pneumoniae KP1081 NDM-1 assessed as minimum concentration of compound needed to reduce the MIC of biapenem to 1 ug/ml
[17] = target: Beta-lactamase (Klebsiella pneumoniae) (UniProt Q93LQ9); assay: Inhibition of Klebsiella pneumoniae KP1004 KPC-2 assessed as minimum concentration of compound needed to reduce the MIC of biapenem to 1 ug/ml
[18] = Inhibition of recombinant Escherichia coli NDM-1 using imipenem as substrate preincubated for 10 mins followed by substrate addition and measured every 30 secs for 30 mins by spectrophotometric analysis
[19] = Inhibition of recombinant Escherichia coli OXA-48 using nitrocefin as substrate preincubated for 10 mins followed by substrate addition and measured every 10 secs for 10 mins by spectrophotometric analysis
[20] = target: Class A carbapenemase KPC-2 (Escherichia coli, UniProt A8DS27); assay: Inhibition of recombinant Escherichia coli KPC-2 using nitrocefin as substrate preincubated for 10 mins followed by substrate addition and measured every 10 secs for 10 mins by spectrophotometric analysis
Klebsiella pneumoniae [21] = assay: Inhibition of Klebsiella pneumoniae KP1086 OXA-48 assessed as minimum concentration of compound needed to reduce the MIC of biapenem to 1 ug/ml
[22] = Inhibition of recombinant Escherichia coli IMP-1 using imipenem as substrate preincubated for 10 mins followed by substrate addition measured every 30 secs for 30 mins by spectrophotometrically analysis
[23] = Inhibition of recombinant Escherichia coli SHV-12 using nitrocefin as substrate preincubated for 10 mins followed by substrate addition measured every 10 secs for 10 mins by spectrophotometrically analysis
Beta-lactamase OXA-23 = Beta-lactamase OXA-23 (Acinetobacter baumannii, UniProt Q9L4P2); assay: Inhibition of Acinetobacter baumannii OXA-23 using nitrocefin as substrate preincubated for 10 mins followed by substrate addition measured every 10 secs for 10 mins by spectrophotometrically analysis
[24] = Inhibition of recombinant Escherichia coli CTX-M-14 using nitrocefin as substrate preincubated for 10 mins followed by substrate addition measured every 10 secs for 10 mins by spectrophotometrically analysis
BlaVIM-1 = BlaVIM-1 (Escherichia coli, UniProt Q8GDC1); assay: Inhibition of recombinant Escherichia coli VIM-1 using nitrocefin as substrate preincubated for 10 mins followed by substrate addition measured every 10 secs for 10 mins by spectrophotometrically analysis
[25] = Inhibition of recombinant Escherichia coli AmpC using nitrocefin as substrate preincubated for 10 mins followed by substrate addition measured every 10 secs for 10 mins by spectrophotometrically analysis
[26] = Inhibition of […] OXA-48 using nitrocefin as substrate preincubated for 10 mins followed by substrate addition measured every 10 secs for 10 mins by spectrophotometrically analysis

Sequence of Beta-lactamase (Klebsiella pneumoniae) (Q93LQ9 as listed by the source): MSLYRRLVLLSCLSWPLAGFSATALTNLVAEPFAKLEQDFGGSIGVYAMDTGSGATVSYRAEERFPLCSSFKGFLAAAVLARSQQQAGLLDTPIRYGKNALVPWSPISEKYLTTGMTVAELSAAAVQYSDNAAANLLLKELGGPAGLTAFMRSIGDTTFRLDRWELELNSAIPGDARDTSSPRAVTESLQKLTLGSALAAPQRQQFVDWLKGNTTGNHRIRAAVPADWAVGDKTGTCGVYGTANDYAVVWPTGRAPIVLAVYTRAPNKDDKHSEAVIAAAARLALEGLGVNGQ
Sequence of Class A carbapenemase KPC-2 (A8DS27 whole entry): as the sequence (Q93LQ9 as listed by the source) above
Sequence of Beta-lactamase OXA-23 (Q9L4P2 whole entry): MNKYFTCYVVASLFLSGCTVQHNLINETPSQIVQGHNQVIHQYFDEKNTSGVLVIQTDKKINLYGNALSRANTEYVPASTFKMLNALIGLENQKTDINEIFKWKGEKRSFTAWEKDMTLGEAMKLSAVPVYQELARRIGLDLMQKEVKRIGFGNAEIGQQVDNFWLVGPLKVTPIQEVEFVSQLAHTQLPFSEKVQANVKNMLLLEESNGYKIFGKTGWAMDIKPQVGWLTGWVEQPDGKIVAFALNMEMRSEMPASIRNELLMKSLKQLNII
Sequence of Beta-lactamase OXA-23 (Acinetobacter baumannii) (Q9L4P2 whole entry): as above

O=C(CSC1CNC1)N[C@H]1Cc2ccc(F)c(C(=O)O)c2OB1O
Activity (Pseudomonas aeruginosa [1]): 5 µg/mL | Activity (Pseudomonas aeruginosa [2]): 5 µg/mL | Ratio [3]: 1

CSCC(=O)N[C@H]1Cc2ccc(F)c(C(=O)O)c2OB1O
MEC [4]: > 20 µg/mL | MEC (Klebsiella pneumoniae [5]): < 0.3 µg/mL | MEC (Klebsiella pneumoniae [6]): > 20 µg/mL | MEC [7]: 0.6 µg/mL | MEC (Acinetobacter baumannii): > 20 µg/mL | Activity (Pseudomonas aeruginosa [1]): 20 µg/mL | MEC (Pseudomonas aeruginosa [8]): 10 µg/mL | MEC (Enterobacter cloacae): 2.5 µg/mL | MEC (Escherichia coli [9]): 1.25 µg/mL | MEC (Escherichia coli [10]): 0.15 µg/mL | Activity (Pseudomonas aeruginosa [2]): 5 µg/mL | MEC (Klebsiella pneumoniae [11]): > 20 µg/mL | MEC (Klebsiella pneumoniae [12]): > 20 µg/mL | Ratio [3]: 4 | MEC (Escherichia coli [13]): 1.25 µg/mL | MEC (Escherichia coli [14]): < 0.3 µg/mL

COc1ccc2c(c1C(=O)OCOC(C)=O)OB(O)[C@@H](Sc1nncs1)C2
bioavailability [15]: 52%

Nc1nnc(SCC(=O)N[C@H]2Cc3cccc(C(=O)O)c3OB2O)s1
Activity (Klebsiella pneumoniae [16]): > 20 µg/mL | Activity [17]: 0.08 µg/mL | Ki [18]: 7400 nM | Ki [19]: 0.5 nM | Ki [20]: 21 nM | Activity (Klebsiella pneumoniae [21]): 2.5 µg/mL

COc1ccc2c(c1C(=O)O)OB(O)[C@@H](NC(=O)CSC1CNC1)C2
Activity (Pseudomonas aeruginosa [1]): 5 µg/mL | Activity (Pseudomonas aeruginosa [2]): 5 µg/mL | Ratio [3]: 1

O=C(CSC1CNC1)N[C@H]1Cc2cccc(C(=O)O)c2OB1O
Activity (Pseudomonas aeruginosa [1]): 2.5 µg/mL | Activity (Pseudomonas aeruginosa [2]): 2.5 µg/mL | Ratio [3]: 1

COc1ccc2c(c1C(=O)OCOC(=O)C(C)C)OB(O)[C@@H](Sc1nncs1)C2
bioavailability [15]: 100%

COc1ccc2c(c1C(=O)O)OB(O)[C@@H](NC(=O)Cc1cccs1)C2
Activity (Pseudomonas aeruginosa [1]): 40 µg/mL | Activity (Pseudomonas aeruginosa [2]): 5 µg/mL | Ratio [3]: 8

CSCC(=O)N[C@H]1Cc2ccc(O)c(C(=O)O)c2OB1O
MEC (Klebsiella pneumoniae [5]): 1.25 µg/mL | MEC [7]: 1.25 µg/mL | Activity (Pseudomonas aeruginosa [1]): 40 µg/mL | MEC (Pseudomonas aeruginosa [8]): 5 µg/mL | MEC (Enterobacter cloacae): 2.5 µg/mL | MEC (Escherichia coli [9]): 2.5 µg/mL | Activity (Pseudomonas aeruginosa [2]): 2.5 µg/mL | Ratio [3]: 16 | MEC (Escherichia coli [14]): < 0.3 µg/mL

O=C(O)C[C@@H]1CC[C@H](NC(=O)Cc2cccs2)B(O)O1 [VABORBACTAM]
Ki [22]: > 40000 nM | Ki [18]: > 40000 nM | Ki [23]: 21 nM | Ki (Beta-lactamase OXA-23): > 40000 nM | Ki [24]: 33 nM | Ki (BlaVIM-1): > 40000 nM | Ki [25]: 35 nM | Ki [26]: 14000 nM | Ki [20]: 56 nM

CCOC(=O)OCOC(=O)c1c(OC)ccc2c1OB(O)[C@@H](Sc1nncs1)C2
bioavailability [15]: 64%

COc1ccc2c(c1C(=O)OCOC(=O)OC(C)C)OB(O)[C@@H](Sc1nncs1)C2
bioavailability [15]: 94%
